Measurements published in patent US9241889B2, “Oral compositions comprising sodium dodecylbenzene sulfonate” (Glaxo Group Limited, priority 2010, dated 2016).

Assays:
[1] = Hydroxyapatite Tea Stain Removal Model (HATSR)
Description: A 96 well hydroxyapatite coated microtitre plate was treated with 100 μl aliquots of tea per well (1 teabag (PG Tips)/50 ml of deionised water) and the plate incubated at 37° C./100 rpm. After 10 minutes the plate was washed with deionised water and dried at 37° C. overnight. The test actives (200 μl per well) were added into each column of the tea coated plate along with the positive and negative control (5% sodium tripolyphosphate (STP) and water respectively) and the plate returned to the incubator. After 10 minutes the plate was once again washed and the bound stain was desorbed by the application of 200 μl of 2.5M citric acid per well. After a minimum of 12 hours, 180 μl of the tea/citric acid solutions were transferred to a clean, normal (not HA coated) 96 well microtitre plate and the absorption measured 405 nm.

[2] = Hydroxyapatite Stain Prevention Model (HASP)
Description: A 96 well hydroxyapatite coated microtitre plate was treated with whole unstimulated human saliva (100 μl per well) at 37° C./100 rpm. After 1 hour the plate was washed to remove any unbound components and 200 μl of each test active was transferred to the plate in columns along with a positive and negative control (5% sodium tripolyphosphate, STP), and water respectively) and the plate returned to the incubator. After 10 minutes the plate was once again washed and the plate was stained by the application of 200 μl of fresh tea solution (1 teabag (PG tips)/50 ml of deionised water). After an additional 10 minutes of incubation, the tea was removed and the plate washed. Finally, the bound stain was desorbed by the application of 200 μl of 2.5M citric acid per well. After a minimum of 12 hours, 180 μl of the tea/citric acid solutions were transferred to a clean, normal (not HA coated) 96 well microtitre plate and the absorption measured 405 nm.

## sodium dodecylbenzene sulphonate [SDDBS]
[1]; SDDBS solutions 0.1%-10%, pH 7, n=8, FIG. 2
  stain removal: removes stain in a dose dependent manner
[1]; all SDDBS concentrations except 0.125%, pH 7, FIG. 2
  stain removal versus water negative control: statistically superior to the water negative control
[1]; all SDDBS concentrations, pH 7, FIG. 2
  stain removal versus positive control 5% STP: none were as effective as the positive control STP
[2]; 0.1% SDDBS, pH 7, FIG. 1
  stain prevention versus water negative control: only directionally superior
[2]; SDDBS solutions 0.1%-10%, pH 7, n=8, FIG. 1
  stain prevention (uptake of dietary stain onto HASP model oral surfaces): prevents the uptake of dietary stain
[2]; all SDDBS concentrations 0.1%-10%, pH 7, FIG. 1
  stain prevention versus positive control 5% STP: none were as effective as the positive control STP
[2]; all SDDBS concentrations except 0.1%, pH 7, FIG. 1
  stain prevention versus water negative control: statistically superior to the water negative control
[2]; equivalent concentration (1% surfactant), pH 7, n=8, FIG. 3
  stain prevention versus SLS: statistically superior to sodium lauryl sulphate (SLS)
